# Experiments:
# [1] = tested on: pUAS-2-Fluc expression in HEK293T cells with cognate or non-cognate GAL4/VPR protein pairs; assay: Orthogonality analysis, Firefly luciferase (Fluc) luminescence; type: cell-based, human; details: seven different protein pairs, 2 days, FIGS. 2A and 14
# Description: Luciferase luminescence intensity measurement. Before transfection, HEK293T cells were seeded in clear bottom 96 well assay plates (Corning no. 3610) with 100 μL DMEM with 10% FBS and 1× penicillin-streptomycin at 37° C. with 5% CO2. When cells reached 50% confluency, 1.5 μL PEI Max (1 mg/mL, pH=7.1) and 100 μL DMEM were mixed with 60 ng of each plasmid (GAL4 and VPR fused target protein or E3 ubiquitin ligase, pUAS-2-Fluc) for 30 min at room temperature. Mixture was transferred into cells gently. 12 h after transfection, medium was changed, and the inductive small molecules were supplied. 2-days post induction, 120 μL of medium was aspirated from each well containing 200 μL of medium, leaving 80 μL of medium per well, then treated with 40 μL of lysis buffer (500 mM DTT (Sigma no. D0632), 10 mM coenzyme A (RPI no. C95275), 100 mM ATP (Thermo Fisher Scientific no. R1441), 80 mg/mL D-luciferin (GoldBio no. LUCNA-100), Triton lysis buffer (0.1082 M Tris-HCl, 0.0419 M Tris-Base, 75 mM NaCl, 3 mM MgCl2)). Plate was shaken with 20 seconds in “Orbital” mode with frequency of 432 rpm and Amplitude of 1 mm to lysis the cells. Recording the luminescence by plate reader Infinite M200 (TECAN) with 1000 ms integration time using Megellan v1.7 (TECAN). Mean of luciferase luminescence relative light units (RLU) was calculated by the average of three biological replications. Normalized RLU were calculated by dividing RLU of the tested group with mean of RLU of DMSO treated control group for normalization: […]
# [2] = tested on: EYFP and BFP expression in HEK293T cells; assay: Dual PROTAC-based inducible gene cassettes (EYFP and BFP), microscopy; type: cell-based, human; details: MZ1 (100 nM) and dTAG-13 (100 nM) PROTAC-CID systems, FIG. 16A
# Description: Transfection and microscopy. HEK293T cells (American Type Culture Collection, no. CRL-3216) were cultured with high-glucose Dulbecco's modified Eagle's medium (DMEM) (Thermo Fisher Scientific no. 10569044) with 10% fetal bovine serum (FBS) (Thermo Fisher Scientific no. 10437028) and 1×penicillin-streptomycin (Thermo Fisher Scientific no. 15140122) at 37° C. with 5% CO2. Except for the data in FIGS. 3C, 3E, and 3H, cells were plated into 96 well plate (Corning no. 3598) and transfected by Polyethyleneimine Max (PEI Max) (Polysciences no. 24765-1). 1.5 μL PEI Max (1 mg/mL, pH=7.1) and 100 μl DMEM were mixed with plasmids to be slowly dropped into the cell medium after 30 mins of incubation. Medium was changed 12 hours post-transfection. The inductive small molecules, including Rapamycin (STEM CELL technologies no. 73362), dTAG-13 (TOCRIS no. 6605/5), dTAG^V-1 (TOCRIS no. 6744-5), dBRD9 (TOCRIS no. 6606/5), dTRIM24 (TOCRIS no. 6607/5), MZ1 (TOCRIS no. 6154/5), AT1 (TOCRIS no. 6356/5), TL13-12 (TOCRIS no. 6744/5), TL13-112 (TOCRIS no. 6745/5), dTAG-7 (TOCRIS no. 69125), ZXH3-26 (TOCRIS no. 6713/5) and ABA (GoldBio no. A-050-100), dissolved in Dimethyl sulfoxide (DMSO) (Sigma, no. D8418) were added. For the microscopy observation, the images were taken by Microscopy EVOS (Life Technologies) and processed by ImageJ (Schneider et al., 2012). If not otherwise noted, 60 ng of each plasmid were used for each sample.
# The inventors next tested the feasibility of dual PROTAC-based inducible gene cassettes (FIG. 15). In the first cassette, GAL4 was fused with FKBP12^F36V, and VHL was ligated with VPR to drive EYFP expression in response to dTAG^V-1. In the second cassette, TetR was fused with BRD9BD, and CRBN was connected with VPR to drive blue fluorescence protein (BFP) expression in the presence of dBRD9. […] As biological computation relies on the protein or DNA to execute Boolean logic gate operation in living organisms for cell discrimination and disease diagnosis (3, 11, 42), the inventors next explored the possibility of PROTAC-CID enabled logic gate biological computation. By placing EYFP under control of the TRE (Tetracycline response element) and pUAS-1 promoter, the inventors observed strong EYFP expression by using one or two PROTACs, achieving clear logic OR gate responses (FIGS. 2C and 16B). To develop a more sophisticated logic AND gate, the inventors took advantage of two orthogonal site-specific DNA recombinases (Cre and Dre) for biological computation (43). […] In this gene circuit, only in the presence of both dTAG-13 and dBRD9 inducers, Dre and Cre can be expressed to remove their respective “STOP” signals, resulting in the eventual GFP expression as a clear logic AND readout (FIGS. 2D and 16C).
Compound,orthogonality: Fluc activation with cognate vs non-cognate protein partners [1],gene activation from dual inducible cassettes [2]
Cc1ncsc1-c1ccc(CNC(=O)[C@@H]2C[C@@H](O)CN2C(=O)[C@@H](NC(=O)COCCOCCOCCNC(=O)C[C@@H]2N=C(c3ccc(Cl)cc3)c3c(sc(C)c3C)-n3c(C)nnc32)C(C)(C)C)cc1 [MZ1],interact with the same protein pairs,single gene activation with one PROTAC small molecule and dual-gene activation using both PROTACs
CC[C@H](C(=O)N1CCCC[C@H]1C(=O)O[C@H](CCc1ccc(OC)c(OC)c1)c1ccccc1OCC(=O)NCCCCCCOc1cccc2c1C(=O)N(C1CCC(=O)NC1=O)C2=O)c1cc(OC)c(OC)c(OC)c1 (stereo partly shown) [dTAG-13],only activated Fluc expression in the cells transfected with plasmids containing GAL4-FKBP12^F36V (SEQ ID NO: 1) and CRBN-VPR (SEQ ID NO: 2) coding regions,single gene activation with one PROTAC small molecule and dual-gene activation using both PROTACs
